{
  "source": "patent US20220008444A1",
  "about": "“COMPOSITIONS FOR USE IN THE PREVENTION OR TREATMENT OF NECROTIZING ENTEROCOLITIS IN INFANTS AND YOUNG CHILDREN” (SOCIÉTÉ DES PRODUITS NESTLÉ S.A., priority 2013, published 2022)",
  "test_system": "NFkB",
  "test": "NFkB reporter cell line (HT29) stimulated with TNFalpha or gram negative bacterium, in conditioned media",
  "assay_type": "cell-based",
  "settings": "HT29 NFkB reporter cells; cell culture media fermented with Bifidobacterium longum subsp infantis and the substance; stimulation with TNFalpha or S. typhymurium",
  "description": "HT29 cells harbouring an expression plasmid with the NFkB promoter controlling an alkaline phosphatase were treated with different media and challenged with the proinflammatory TNFalpha or a gram negative bacterium such as Salmonella typhimurium. Treatments were cell culture media fermented with Bifidobacterium longum subsp infantis and (i) lactose or (ii) Lacto-N-tetraose (LNT).\nThe cells harbored an expression plasmid with the NF-κB promoter controlling an alkaline phosphatase so that stimulation by TNF-α or a gram negative bacterium would be indicated by fluorescence generated by interaction of the alkaline phosphatase with a fluorogenic substrate. […] This indicates LNT to exert a strong anti-inflammatory effect. Conditioned media with LNT lead to higher resistance of the cells upon proinflammatory TNFalpha or a gram negative bacterial stimulation. Intestinal epithelia cells in media conditioned by LNT (lacto-N-tetraose) and Bifidobacterium fermentation products are more resistant to proinflammatory stimulation by TNFalpha as compared to cells in a control medium conditioned by lactose and Bifidobacterium fermentation products.",
  "data": [
    {"smiles": "CC(=O)N[C@H]1[C@H](O[C@H]2[C@@H](O)[C@@H](CO)O[C@@H](O[C@H]3[C@H](O)[C@@H](O)C(O)O[C@@H]3CO)[C@@H]2O)O[C@H](CO)[C@@H](O)[C@@H]1O[C@@H]1O[C@H](CO)[C@H](O)[C@H](O)[C@H]1O", "note": "(some centres unmarked) [LNT, lacto-N-tetraose]", "values": [
      {"measurement": "activation of the inflammation marker nuclear factor kappa B (NFkB)", "result": "no stimulation"}
    ]},
    {"smiles": "OC[C@H]1O[C@@H](O[C@H]2[C@H](O)[C@@H](O)C(O)O[C@@H]2CO)[C@H](O)[C@@H](O)[C@H]1O", "note": "(some centres unmarked) [lactose]", "values": [
      {"measurement": "activation of the inflammation marker nuclear factor kappa B (NFkB)", "result": "very strong stimulation"}
    ]}
  ]
}
